How the values were obtained:
NMDA receptor [1] = test: Survival of CBE-treated mice given NMDA receptor agonists or antagonists; assay type: in vivo, mouse
Source text: (§1) Mice—Pure inbred mouse strains were obtained from the Jackson laboratories (USA), Harlan UK and Harlan Israel. Specifically, BTBR T^+ Itpr3^tf/J C3H/HeJ, DBA/2J, MRL/MpJ, WSB/EiJ, MOLF/Ei, PWD/PhJ, KK/HiJ, BPL/1J, I/LnJ, BPN/3J, and LP/J were obtained from Jackson; A/J, AKR/J, NZW/LacJ, 129S1/SvImJ were obtained from Harlan laboratories in the UK; and C57BL/6JOlaHsd, BALB/cJ and FVB/NJ were obtained from the Harlan laboratories in Israel. Gba^flox/flox; nestin-Cre mice, a mouse model of GD were generated as described in Vitner et al. Nature Medicine (2014) 20: 204-208; and Enquist, I. B. et al. Proc. Natl. Acad. Sci. USA (2007) 104: 17483-17488. These mice recapitulate many features of human nGD, although their Gba1 deficiency is restricted to neural and macroglial lineages. Mice were maintained under specific pathogen-free conditions and handled according to protocols approved by the Weizmann Institute Animal Care Committee according to international guidelines.
CBE injections—Conduritol-β-epoxide (CBE) was obtained from Calbiochem Millipore (Darmstadt, Germany). CBE at a dose of 25 mg or 50 mg per kg body weight per day or PBS (control) were administered i.p. to mice daily starting from postnatal day 8 (P8) of age.
(§2) Treatment with NMDA receptor agonists and antagonists—All agonists and antagonists were administered daily from P8. D-cycloserine (Sigma) was administered daily at a dose of 200 mg/kg/day. MK-801 (Sigma) was administered daily at a dose of 0.3 mg/Kg/day. Memantine (Sigma) was administered daily at a dose of 3 or 30 mg/Kg/day. Ifenprodil (Sigma) was administered daily at a dose of 9 mg/Kg/day.

GBA1 = biological target: T1, GBA1 (Mus musculus, UniProt P17439); test: GBA1 activity assay in brain homogenates of treated mice; assay type: in vivo; details: A/J mice, CBE plus memantine
T1 construct: from tissue; host or cells: mouse brain (frozen half-brain homogenate) of inbred strains treated in vivo with PBS, CBE or CBE plus memantine
T1 sequence (P17439 20-515): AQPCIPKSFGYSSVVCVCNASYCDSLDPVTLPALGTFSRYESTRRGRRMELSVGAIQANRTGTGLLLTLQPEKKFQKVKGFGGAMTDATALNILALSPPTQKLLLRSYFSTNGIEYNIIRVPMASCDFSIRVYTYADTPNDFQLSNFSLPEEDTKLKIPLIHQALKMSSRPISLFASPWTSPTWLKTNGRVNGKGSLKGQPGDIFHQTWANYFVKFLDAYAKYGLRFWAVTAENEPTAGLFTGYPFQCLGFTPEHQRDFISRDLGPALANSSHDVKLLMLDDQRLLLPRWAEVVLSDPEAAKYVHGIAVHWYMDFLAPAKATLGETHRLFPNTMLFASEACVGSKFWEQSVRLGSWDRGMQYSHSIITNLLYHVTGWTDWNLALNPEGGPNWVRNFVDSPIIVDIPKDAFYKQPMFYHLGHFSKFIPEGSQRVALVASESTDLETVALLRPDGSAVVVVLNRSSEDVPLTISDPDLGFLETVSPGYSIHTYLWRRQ
Procedure: GBA1 activity assay—GBA1 activity was performed as previously described (Farfel-Becker et al. Hum Mol Genet. 2014; 23(4):843-54). Briefly, frozen half-brain samples were sonicated in Mcllvaine's buffer (0.1 M citric acid, pH 4.2, 0.2 M Na2HPO4, 29:21, vol:vol). Tissue homogenates containing 50 μg of protein were incubated at 37° C. with 8 μM C6-NBD-GlcCer (Avanti Polar Lipids, Alabaster, Ala., USA) in a final volume of 25 μl Mcllvaine's buffer for 30 minutes. Lipids were extracted and the lower phase separated by thin layer chromatography using chloroform:methanol:9.8 mM CaCl2 (60:35:8, vol:vol:vol) as the developing solvent. C6-NBD-ceramide was identified with an authentic standard using a Typhoon 9410 variable mode imager and bands were quantified by Image-QuantTL (GE Healthcare, Chalfont St Giles, UK).
To eliminate the possibility that the phenotypic differences observed in the different mouse strains were caused by differential CBE metabolism in the brain, GBA1 enzymatic activity in mice treated for 10 days with CBE or PBS (control) was measured. […] Overall, the remaining GBA1 activity was 5-10% of the controls (FIG. 3A). There was no correlation between GBA1 activity in the brain and life spans neither in the PBS(R^2=0.126, data not shown) nor CBE conditions (R^2=0.0581, FIG. 3B). In addition, no correlation was found between inhibition of GBA1 activity and life span when evaluated according to strains (R^2=0.0085, data not shown).

NMDA receptor [2] = test: Survival of Gba flox/flox; nestin-Cre mice (genetic nGD model) treated with memantine; assay type: in vivo, mouse; details: memantine 3 or 30 mg/kg day from P8 vs PBS
Source text: as §1, §2

[3] = tested on: motor coordination of CBE-treated mice; test: Locomotor testing by the hanging wire test; assay type: in vivo, mouse
Source text: Locomotor testing—Locomotor coordination was weekly evaluated in the treated strains by the hanging wire test, a validated test for LSD mouse models (Alvarez et al. 2008). Briefly, the mouse was placed with forepaws at a center of a horizontal bar (3 mm diameter; 35 mm long).
To further characterize the effect of CBE treatment on the different strains, motor behavior was followed weekly using the hanging wire test, starting at postnatal day 21 for a period of 2 months. The hanging wire test evaluates coordination and locomotor function, wherein a high score means better coordination. […] Of note, strains PWD/PhJ and WSB/EiJ were excluded in the motor behavior analysis due to their wild behavior.

CC(C(O)c1ccc(O)cc1)N1CCC(Cc2ccccc2)CC1.O=C(O)C(O)C(O)C(=O)O (stereo not drawn) [Ifenprodil, α-(4-Hydroxyphenyl)-β-methyl-4-benzyl-1-piperidineethanol (+)-tartrate salt] was tested, and the life spans (NMDA receptor [1]; Ifenprodil 9 mg/Kg/day, CBE (25 mg/kg day)-treated A/J mice, daily from P8) was “showed increments in the life spans”.

For C[C@]12N[C@H](Cc3ccccc31)c1ccccc12 [MK-801], the survival (NMDA receptor [1]; MK-801 0.3 mg/Kg/day, CBE-treated (25 mg/Kg/day) C3H mice, daily from P8) was “extended the survival”.

For CC12CC3CC(C)(C1)CC(N)(C3)C2.Cl [Memantine, 3,5-Dimethyl-1-adamantanamine hydrochloride], the “interference with GBA1 inhibition in the brain” value (GBA1; brains harvested P18 or P70) was “did not interfere with GBA1 inhibition”, the “cerebral GBA1 activity” value (GBA1; postnatal day 70 (P70)) was “almost undetectable” and the life span (NMDA receptor [1]; memantine 3 mg/kg day plus CBE 25 mg/kg day, A/J, C3H/HeJ, DBA/2J and C57BL6/JolaHsd mice, daily from P8) was “significantly extended the life span”. The survival (NMDA receptor [1]; memantine 30 mg/kg/day, CBE 50 mg/kg/day, AJ mice, daily from P8) was “significantly extended survival”, the “increase of life span compared with MK-801” value (NMDA receptor [1]; neuropathic GD (CBE-treated) mice) was “to a greater extent than MK-801” and the survival (NMDA receptor [2]) was “significantly extended survival”. For the same compound, the “progression of the motor dysfunction induced by CBE (hanging wire test)” value ([3]; A/J mice, CBE plus memantine) was “delayed the progression of the motor dysfunction” and the “hanging wire test score” value ([3]; memantine-treated CBE mice at postnatal day 49) was “the same score as CBE-treated mice at P21”.

For N[C@@H]1CONC1=O [D-cycloserine], the life spans (NMDA receptor [1]; D-cycloserine 200 mg/kg/day, CBE-treated (25 mg/kg day) long living strains BALB/cJ, FVB/NJ, 129S1/SvImJ, BTBR T+ Itpr3tf/J, daily from P8) was “reduced the life spans”.

Reference: US20170273917A1, “NMDA RECEPTOR ANTAGONISTS FOR TREATING GAUCHER DISEASE” (Yeda Research and Development Co. Ltd., priority 2014, published 2017)
